Read-outs that look alike come from different tables or passages of the source.
Tests used:
zebrafish embryos [1] = tested on: zebrafish embryos; set-up: method as in earlier work; conditions: nominal, cited from earlier work
[2] = tested on: ZF4 (fibroblasts) cell line; experiment: alamarBlue (AB) endpoint of AB/CFDA/NR multiplex, cellular respiration; format: cell-based, zebrafish (Danio rerio); conditions: Danio rerio, Fibroblast
[3] = tested on: ZFL (hepatocytes) cell line; experiment: cells; format: cell-based, zebrafish (Danio rerio); conditions: Danio rerio, Hepatocyte
[4] = tested on: diverse mammalian cell assay results; set-up: method as in https://comptox.epa.gov/dashboard/; conditions: COMPTOX; ref https://comptox.epa.gov/dashboard/; read-out: median AC50; cited from earlier work
[5] = tested on: ZFL (hepatocytes) cell line; experiment: cells; format: cell-based, zebrafish (Danio rerio); conditions: Danio rerio, Hepatocyte; remark: listed apart in the source
[6] = tested on: zebrafish cell lines vs zebrafish embryo; experiment: Potency ratios IC50;x/EC50;x (cytotoxicity assays vs mFET); set-up: species or system zebrafish (Danio rerio)
[7] = tested on: ZF4 (fibroblasts) cell line; experiment: CFDA endpoint of AB/CFDA/NR multiplex, membrane stability; format: cell-based, zebrafish (Danio rerio); conditions: Danio rerio, Fibroblast
[8] = tested on: ZFL (hepatocytes) cell line; experiment: cells; format: cell-based, zebrafish (Danio rerio); conditions: Danio rerio, Hepatocyte; remark: listed apart in the source
[9] = tested on: ZF4 (fibroblasts) cell line; experiment: ATP assay (ATP/LDH multiplex), ATP metabolism; format: cell-based, zebrafish (Danio rerio); conditions: Danio rerio, Fibroblast
ZF4 and ZFL cell lines = experiment: Cytotoxicity assays, all endpoints, both cell lines (mean/range); format: cell-based, zebrafish (Danio rerio); conditions: 48 h, mean of all cytotoxicity endpoints (without LDH) in ZF4 and ZFL
[10] = tested on: ZFL (hepatocytes) cell line; experiment: cells; format: cell-based, zebrafish (Danio rerio); conditions: Danio rerio, Hepatocyte; remark: listed apart in the source
[11] = ref Comptox, PubChem or DrugBank; cited from earlier work
[12] = tested on: ZF4 (fibroblasts) cell line; experiment: BCA assay (MTS/BCA multiplex), protein amount; format: cell-based, zebrafish (Danio rerio); conditions: Danio rerio, Fibroblast
[13] = tested on: ZFL (hepatocytes) cell line; experiment: cells; format: cell-based, zebrafish (Danio rerio); conditions: Danio rerio, Hepatocyte; remark: listed apart in the source
[14] = tested on: ZFL (hepatocytes) cell line; experiment: cells; format: cell-based, zebrafish (Danio rerio); conditions: Danio rerio, Hepatocyte; remark: listed apart in the source
[15] = tested on: ZF4 (fibroblasts) cell line; experiment: Neutral red, absorbance (NRa), AB/CFDA/NR multiplex, lysosome stability; format: cell-based, zebrafish (Danio rerio); conditions: Danio rerio, Fibroblast
zebrafish embryos [16] = experiment: animal or person; format: in vivo, zebrafish (Danio rerio); conditions: for EC50: Danio rerio
[17] = tested on: ZF4 (fibroblasts) cell line; experiment: MTS assay (MTS/BCA multiplex), NAD(P)H metabolism; format: cell-based, zebrafish (Danio rerio); conditions: Danio rerio, Fibroblast
[18] = tested on: ZFL (hepatocytes) cell line; experiment: cells; format: cell-based, zebrafish (Danio rerio); conditions: Danio rerio, Hepatocyte; remark: listed apart in the source
[19] = tested on: ZF4 (fibroblasts) cell line; experiment: Neutral red, fluorescence (NRf), AB/CFDA/NR multiplex, lysosome stability; format: cell-based, zebrafish (Danio rerio); conditions: Danio rerio, Fibroblast

Compound: COC(=O)Nc1nc2ccc([S+]([O-])c3ccccc3)cc2[nH]1 (stereo not drawn) [Oxfendazole, oxfendazole]
- EC50 (zebrafish embryos [1]; 144 hpf, converted, listed as Ox): 21.6 µM
- logEC50 144 hpf (zebrafish embryos [1]; log10): -4.666 M
- IC50 ([2]; AB - ZF4, log10 of IC50, read-out: LogIC50 (converted)): 124 µM
- IC50 ([2]; AB - ZF4, read-out: IC50): 124 µM
- IC50 ([2]; ZF4, 48 h exposure, nominal, log10, read-out: logIC50 (log10 IC50;nom) AB (converted)): 123 µM
- IC50 ([2]; ZF4, 48 h exposure, nominal, read-out: IC50;nom AB): 124 µM
- IC50 ([3]; BCA - ZFL, log10 of IC50, read-out: LogIC50 (converted)): 0.058 µM
- IC50 ([3]; BCA - ZFL, read-out: IC50): 0.058 µM
- IC50 ([3]; ZFL, 48 h exposure, nominal, log10, read-out: logIC50 (log10 IC50;nom) BCA (converted)): 0.0575 µM
- IC50 ([3]; ZFL, 48 h exposure, nominal, read-out: IC50;nom BCA): 0.058 µM
- AC50 [4]: 0.34 µM
- IC50 ([5]; ATP - ZFL, log10 of IC50, read-out: LogIC50 (converted)): 106 µM
- IC50 ([5]; ATP - ZFL, read-out: IC50): 106 µM
- IC50 ([5]; ZFL, 48 h exposure, nominal, log10, read-out: logIC50 (log10 IC50;nom) ATP (converted)): 105 µM
- IC50 ([5]; ZFL, 48 h exposure, nominal, read-out: IC50;nom ATP): 106 µM
- potency ratio IC50;nom/EC50;nom (median) ([6]; median over cytotoxicity endpoints, nominal, 48 h cells / 48 hpf mFET): 1.51
- difference in sensitivity between embryo (EC50;nom) and cells (IC50;nom) ([6]; nominal concentrations, higher potency in the mFET): equal nominal median concentrations between test systems
- IC50 ([7]; CFDA - ZF4, log10 of IC50, read-out: LogIC50 (converted)): 153 µM
- IC50 ([7]; CFDA - ZF4, read-out: IC50): 153 µM
- IC50 ([7]; ZF4, 48 h exposure, nominal, log10, read-out: logIC50 (log10 IC50;nom) CFDA (converted)): 151 µM
- IC50 ([7]; ZF4, 48 h exposure, nominal, read-out: IC50;nom CFDA): 153 µM
- IC50 ([8]; CFDA - ZFL, log10 of IC50, read-out: LogIC50 (converted)): 320 µM
- IC50 ([8]; CFDA - ZFL, read-out: IC50): 320 µM
- IC50 ([8]; ZFL, 48 h exposure, nominal, log10, read-out: logIC50 (log10 IC50;nom) CFDA (converted)): 324 µM
- IC50 ([8]; ZFL, 48 h exposure, nominal, read-out: IC50;nom CFDA): 320 µM
- IC50 ([9]; ATP - ZF4, log10 of IC50, read-out: LogIC50 (converted)): 144 µM
- IC50 ([9]; ATP - ZF4, read-out: IC50): 144 µM
- IC50 ([9]; ZF4, 48 h exposure, nominal, log10, read-out: logIC50 (log10 IC50;nom) ATP (converted)): 145 µM
- IC50 ([9]; ZF4, 48 h exposure, nominal, read-out: IC50;nom ATP): 144 µM
- IC50 (ZF4 and ZFL cell lines; Danio rerio, log10, read-out: Mean log IC50nom (converted)): 23.4 µM
- Mean log IC50nom (ZF4 and ZFL cell lines; log10, listed as Ox): -4.631 M
- IC50 ([10]; NR-abs - ZFL, log10 of IC50, read-out: LogIC50 (converted)): 8.93 µM
- IC50 ([10]; NR-abs - ZFL, read-out: IC50): 8.93 µM
- IC50 ([10]; ZFL, 48 h exposure, nominal, log10, read-out: logIC50 (log10 IC50;nom) NRa (converted)): 8.91 µM
- IC50 ([10]; ZFL, 48 h exposure, nominal, read-out: IC50;nom NRa): 8.93 µM
- BCF [11]: 161
- Physiological charge [11]: 0
- Water Solubility [11]: insoluble
- logKoa [11]: 9.57
- logKow [11]: 1.45
- pKa (Strongest Acidic) [11]: 9.26
- pKa (Strongest Basic) [11]: 3.57
- w_solubility (water solubility) [11]: 864 µM
- IC50 ([12]; BCA - ZF4, log10 of IC50, read-out: LogIC50 (converted)): 6.43 µM
- IC50 ([12]; BCA - ZF4, read-out: IC50): 6.43 µM
- IC50 ([12]; ZF4, 48 h exposure, nominal, log10, read-out: logIC50 (log10 IC50;nom) BCA (converted)): 6.46 µM
- IC50 ([12]; ZF4, 48 h exposure, nominal, read-out: IC50;nom BCA): 6.43 µM
- IC50 ([13]; NR-fluo - ZFL, log10 of IC50, read-out: LogIC50 (converted)): 7.37 µM
- IC50 ([13]; NR-fluo - ZFL, read-out: IC50): 7.37 µM
- IC50 ([13]; ZFL, 48 h exposure, nominal, log10, read-out: logIC50 (log10 IC50;nom) NRf (converted)): 7.41 µM
- IC50 ([13]; ZFL, 48 h exposure, nominal, read-out: IC50;nom NRf): 7.37 µM
- IC50 ([14]; AB - ZFL, log10 of IC50, read-out: LogIC50 (converted)): 10.4 µM
- IC50 ([14]; AB - ZFL, read-out: IC50): 10.4 µM
- IC50 ([14]; ZFL, 48 h exposure, nominal, log10, read-out: logIC50 (log10 IC50;nom) AB (converted)): 10.5 µM
- IC50 ([14]; ZFL, 48 h exposure, nominal, read-out: IC50;nom AB): 10.4 µM
- IC50 ([15]; NR-abs - ZF4, log10 of IC50, read-out: LogIC50 (converted)): 58.6 µM
- IC50 ([15]; NR-abs - ZF4, read-out: IC50): 58.6 µM
- IC50 ([15]; ZF4, 48 h exposure, nominal, log10, read-out: logIC50 (log10 IC50;nom) NRa (converted)): 58.9 µM
- IC50 ([15]; ZF4, 48 h exposure, nominal, read-out: IC50;nom NRa): 58.6 µM
- IC50 ([15]; ZF4 cell line, NRa endpoint, nominal, read-out: IC50;nom): 18.5 µg/mL
- difference in toxicity (EC50;nom) between 48 hpf and 144 hpf (zebrafish embryos [16]; 48 hpf time point less sensitive than 144 hpf): approximately the same
- log EC50;nom (mFET) (zebrafish embryos [16]; 48 hpf, nominal, log10, listed as Ox): -4.607 M
- EC50 (zebrafish embryos [16]; 48 hpf, nominal, log10, read-out: log EC50;nom (mFET) (converted)): 24.5 µM
- EC50 (zebrafish embryos [16]; 48 hpf, nominal, read-out: EC50;nom (embryo)): 7.79 µg/mL
- EC50 (zebrafish embryos [16]; read-out: EC50 48hpf): 24.7 µM
- EC50 (zebrafish embryos [16]; read-out: EC50;nom (mFET)): 24.7 µM
- IC50 ([17]; MTS - ZF4, log10 of IC50, read-out: LogIC50 (converted)): 20.4 µM
- IC50 ([17]; MTS - ZF4, read-out: IC50): 20.4 µM
- IC50 ([17]; ZF4, 48 h exposure, nominal, log10, read-out: logIC50 (log10 IC50;nom) MTS (converted)): 20.4 µM
- IC50 ([17]; ZF4, 48 h exposure, nominal, read-out: IC50;nom MTS): 20.4 µM
- IC50 ([18]; MTS - ZFL, log10 of IC50, read-out: LogIC50 (converted)): 9.73 µM
- IC50 ([18]; MTS - ZFL, read-out: IC50): 9.73 µM
- IC50 ([18]; ZFL, 48 h exposure, nominal, log10, read-out: logIC50 (log10 IC50;nom) MTS (converted)): 9.77 µM
- IC50 ([18]; ZFL, 48 h exposure, nominal, read-out: IC50;nom MTS): 9.73 µM
- IC50 ([19]; NR-fluo - ZF4, log10 of IC50, read-out: LogIC50 (converted)): 54.3 µM
- IC50 ([19]; NR-fluo - ZF4, read-out: IC50): 54.3 µM
- IC50 ([19]; ZF4, 48 h exposure, nominal, log10, read-out: logIC50 (log10 IC50;nom) NRf (converted)): 53.7 µM
- IC50 ([19]; ZF4, 48 h exposure, nominal, read-out: IC50;nom NRf): 54.3 µM
